Assay results from patent publication US8431131B2, “CD38 and obesity” (Mayo Foundation for Medical Education and Research, priority 2007, dated 2013).

Assays:
[1] = test system: Ca2+ release induced by oxytocin; experiment: Oxytocin-induced Ca2+ release in smooth muscle cells (control experiments); type: cell-based, mice; conditions: same conditions as p53 experiment
acetylated P53 = experiment: Acetylated p53 immuno-staining in cultured smooth muscle cells (measure of endogenous SIRT activity); type: cell-based, mice; conditions: 100 μM, four to six hours
Experimental: (§1) FIG. 8. The effect of resveratrol and sirtinol upon the cADPR system. In A, ADP ribosyl cyclase activity was measured in liver plasma membranes using NGD as a substrate. Mice were treated with 100 μM of a test drug: DTT (dithiothreitol), resverastrol (Resv), or sirtinol. The control mice received no addition. Similar results were obtained using purified Aplysia ADPribosyl cyclase. In B, cADPR-induced Ca^2+ was measured in sea urchin egg homogenates. Ca^2+ was induced by 100 nM of cADPR with no further additions, or with 1 minute pre-incubation of 100 μM of the testing drugs 8-Br-cADPR (8-Br), resveratrol (Resv), or sirtinol. In C, experiments were conducted in smooth muscle cells in culture as described in FIG. 1E. Four to six hours before fixation and staining with acetylated P53 antibody, cells were treated with 100 μM of the testing drugs. 3-Deaza-cADPR is a cell permeable cADPR agonist. […] All experiments were repeated three to four times. The asterisk denotes significant differences between control and treatment.
For experiments, cells were made quiescent by replacing the growth medium with SmBM without serum or growth factors. Cell medium was again replaced with SmBM containing testing agents solubilized in 0.1% DMSO or water added to the final concentrations.
Smooth muscle cells were obtained as described above. Cells were fixed in suspension in PBS plus 2% paraformaldehyde for 20 minutes at room temperature with constant agitation, and cells were washed three times for 10 minutes with TBS-Triton X-100 (0.1%). After that, cells were incubated in blocking buffer (TBS, 30 mM glycine, and 5% BSA) for 60 minutes and incubated with anti-acetylated p53 rabbit polyclonal antibody (1:1000) (Abcam, Inc.; Cambridge, Mass.) overnight at 4° C. with constant agitation. […]
Laser confocal images were obtained using the Olympus Fluoview laser scanning confocal microscopy, with objective Olympus UplanApo oil, 100×, 1.35 numerical aperture. Nuclei were excited at 543 nm, and their emission recorded at 570 nm.

SIRT1 = target: T1, SIRT1 (Homo sapiens, UniProt Q96EB6); experiment: Effect of CD38 metabolites on SIRT1 activity; type: biochemical
T1 construct: purchased Biomol International, LP
T1 sequence (Q96EB6 1-747): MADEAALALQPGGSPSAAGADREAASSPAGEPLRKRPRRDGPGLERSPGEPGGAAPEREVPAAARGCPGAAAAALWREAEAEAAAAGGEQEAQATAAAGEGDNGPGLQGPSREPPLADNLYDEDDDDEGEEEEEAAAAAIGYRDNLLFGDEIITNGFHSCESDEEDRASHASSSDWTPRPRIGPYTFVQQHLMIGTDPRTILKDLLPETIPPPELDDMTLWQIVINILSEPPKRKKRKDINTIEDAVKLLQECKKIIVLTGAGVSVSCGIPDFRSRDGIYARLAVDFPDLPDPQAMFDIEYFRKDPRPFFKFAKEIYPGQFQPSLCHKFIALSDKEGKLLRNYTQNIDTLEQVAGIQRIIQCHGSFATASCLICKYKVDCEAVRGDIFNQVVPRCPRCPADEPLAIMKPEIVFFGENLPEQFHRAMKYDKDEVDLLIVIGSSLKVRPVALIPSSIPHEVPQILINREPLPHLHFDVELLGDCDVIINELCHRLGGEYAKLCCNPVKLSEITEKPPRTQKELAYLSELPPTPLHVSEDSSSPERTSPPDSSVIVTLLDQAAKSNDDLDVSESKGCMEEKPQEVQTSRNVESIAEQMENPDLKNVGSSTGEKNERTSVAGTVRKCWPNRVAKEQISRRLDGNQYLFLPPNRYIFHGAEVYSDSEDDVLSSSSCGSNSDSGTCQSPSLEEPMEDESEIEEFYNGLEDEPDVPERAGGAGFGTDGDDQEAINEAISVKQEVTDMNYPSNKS
Experimental: SIRT1 polypeptide activity was determined using the SIRT1 Fluorimetric Kit (Biomol International, LP; Plymouth Meeting, Pa.) according to the manufacturer's instructions. Briefly, nuclei prepared from wild-type or CD38 knockout mice (1 μg protein/well) were incubated in 40 mM Tris-HCl (pH 7.4) containing human recombinant SIRT1 (1 U/assay), 500 μM NAD+, and 100 μM Flour de Lys-SIRT1 substrate for 30 minutes at 37° C. Following incubation, the reaction was terminated by addition of a solution containing Flour de Lys Developer and 2 mM nicotinamide. Values were determined by reading fluorescence on a fluorimetric plate reader (Spectramax Gemini XPS; Molecular Devices; Sunnyvale, Calif.) with an excitation wavelength of 360 nm and emitted wavelength of 460 nm. Calculation of net fluorescence expressed as percent of control included the subtraction of a blank consisting of buffer containing no NAD+. Endogenous SIRT polypeptide activity was determined as described above with the exception that no recombinant SIRT enzyme was added to the reaction mixture and that the nuclear preparations were sonicated before the assay. The data were expressed as NAD stimulated deacetylation.
CD38 metabolites were tested for an effect on SIRT1 activity.

CD38 polypeptide = target: T2, CD38 polypeptide (Homo sapiens, UniProt P28907); experiment: CD38 NADase activity assay with etheno-NAD as substrate; type: biochemical; conditions: 1 mM, 10 minutes incubation
T2 sequence (P28907 1-300): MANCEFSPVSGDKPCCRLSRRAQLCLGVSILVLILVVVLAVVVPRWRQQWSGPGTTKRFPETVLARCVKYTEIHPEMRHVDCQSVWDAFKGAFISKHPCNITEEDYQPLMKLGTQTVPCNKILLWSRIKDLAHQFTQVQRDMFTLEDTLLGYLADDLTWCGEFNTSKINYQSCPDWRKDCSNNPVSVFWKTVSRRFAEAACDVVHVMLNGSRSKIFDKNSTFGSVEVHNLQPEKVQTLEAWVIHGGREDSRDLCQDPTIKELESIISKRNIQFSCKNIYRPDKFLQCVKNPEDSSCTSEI
Description: Agents that can inhibit CD38 expression or activity in cells can be identified by screening candidate agents (e.g., from synthetic compound libraries and/or natural product libraries). Candidate agents can be obtained from any commercial source and can be chemically synthesized using methods that are known to those of skill in the art. Candidate agents can be screened and characterized using in vitro cell-based assays, cell free assays, and/or in vivo animal models. For example, a CD38 NADase assay can be used to identify CD38 antagonists. NADase activity can be determined using etheno-NAD. Enzyme preparations (e.g., purified CD38) can be incubated in a medium containing, for example, 0.2 mM […], 0.25 M sucrose, and 40 mM Tris-HCl (pH 7.2) at 37° C. NADase activity can be determined by measuring the change in fluorescence over time at, for example, 300 nm excitation and 410 nm emission. Candidate agents can be added to the CD38 assay, and a decrease of the NADase activity compared to control can be determined. […]
ADP-ribosyl cyclase polypeptide activity was measured using the NGD technique as described herein, and NADase polypeptide activity was determined using etheno-NAD as described elsewhere (Johnson et al., Diabetes, 55:2737-2746 (2006)). […] Activity was determined by measuring the change in fluorescence over time at 300 nm excitation and 410 nm emission. […]

ADP ribosyl cyclase = ADP ribosyl cyclase activity (cADPR synthesis) in liver plasma membranes using NGD as substrate; type: biochemical, mice; conditions: 100 μM test drug
Experimental: as §1
ADP-ribosyl cyclase polypeptide activity was measured using the NGD technique as described herein, and NADase polypeptide activity was determined using etheno-NAD as described elsewhere (Johnson et al., Diabetes, 55:2737-2746 (2006)). […] Activity was determined by measuring the change in fluorescence over time at 300 nm excitation and 410 nm emission.

[2] = test system: cADPR-induced Ca2+ release; experiment: cADPR-induced Ca2+ release in sea urchin egg homogenates; type: biochemical, Lytechinus pictus; conditions: 100 nM cADPR, 1 minute pre-incubation with 100 μM drug
Experimental: as §1, with “Similar results were obtained using purified Aplysia ADPribosyl cyclase.” left out, “treatment. cADPR-induced Ca^2+ release was determined in sea urchin egg homogenates using fluo-3 as a Ca^2+ indicator as described elsewhere (Chini, Braz. J. Med. Biol. Res., 35:543-547 (2002)). […] Fluo-3 fluorescence was monitored at 490 nm excitation and 535 nm emission in a 250-μL cuvette, held at 17° C. with a circulating water bath and continuously mixed with a magnetic stirring bar, in a Hitachi spectrofluorometer (F-2000).” for “treatment.”

[3] = test system: high fat diet-induced obesity; experiment: High fat diet-induced obesity in mice; type: in vivo; conditions: 30 mg/kg/day intraperitoneal, two weeks of HFD
Experimental: FIG. 9. […] Wild type mice were treated with resveratrol (a SIRT stimulator), and CD38 (−/−) mice were treated with Sirtinol (a SIRT antagonist) during 2 weeks of high fat diet. […] The number of animals in each group was between four and six.
Metabolic Studies and Diet At one year of age, CD38 (−/−) mice were placed on either a normal caloric diet (NCD; diet number 3807, KLIBA-NAFAG) or an HFD (AIN-93G modified to provide 60% of calories from fat, Researchdiets) ad libitum and monitored for six weeks. Body weight was recorded weekly, and food intake was measured for seven consecutive days. Oxygen consumption and energy expenditure (ER) measurements were performed in mice fed HFD for four weeks, and quantification of blood metabolites were performed. For the experiments using resveratrol and sirtinol, the HFD was supplemented with daily intraperitoneal injections of 30 mg/kg of drug (or vehicle) for two weeks. Cultured Smooth Muscle Cells from Wild-Type and CD38 Knockout Mice
Wild type mice were treated with 30 mg/kg/day of resveratrol, and CD38 (−/−) were treated with the same dose of sirtinol to determine the role of the SIRT enzymes upon high fat diet-induced obesity.

Compound: 3-Deaza-cADPR
- effect on oxytocin-induced Ca2+ release [1]: increased oxytocin effect

Compound: N=c1c2nc(Br)n3c2ncn1C1OC(COP(=O)(O)OP(=O)(O)OCC2OC3C(O)C2O)C(O)C1O (centres unmarked) [8-Br-cADPR]
- levels of p53 acetylation in cells (acetylated P53; smooth muscle cells): neither the cell permeable cADPR antagonist (8-br-cADPR) nor the cADPR agonist (3-deaza-cADPR) had any effect
- effect on oxytocin-induced Ca2+ release [1]: blocked Ca^2+ release induced by oxytocin

Compound: NC(=O)c1ccc[n+]([C@@H]2O[C@H](COP(=O)([O-])OP(=O)(O)OC[C@H]3O[C@@H](n4cnc5c(N)ncnc54)[C@H](O)[C@@H]3O)[C@@H](O)[C@H]2O)c1 [NAD]
- effect on SIRT1 activity (SIRT1): exhibited an effect

Compound: NC(=O)c1cccnc1 [nicotinamide]
- effect on SIRT1 activity (SIRT1): exhibited an effect
- CD38 NADase activity (CD38 polypeptide): substantial inhibition

Compound: Oc1ccc(C=Cc2cc(O)cc(O)c2)cc1 [resveratrol]
- effect upon cADPR synthesis (ADP ribosyl cyclase activity) (ADP ribosyl cyclase): Neither resveratrol (a SIRT activator) nor sirtinol (a SIRT inhibitor) exhibited any effect
- effect upon cADPR-induced Ca2+ release [2]: Neither resveratrol (a SIRT activator) nor sirtinol (a SIRT inhibitor) exhibited any effect
- acetylated p53 level (acetylated P53; smooth muscle cells from wild type mice): decreased acetylated p53
- protection against high fat diet-induced obesity ([3]; wild type mice): protected against high fat induced obesity

Compound: CC(NC(=O)c1ccccc1/N=C/c1c(O)ccc2ccccc12)c1ccccc1 (centres unmarked) [sirtinol]
- effect upon cADPR synthesis (ADP ribosyl cyclase activity) (ADP ribosyl cyclase): nor sirtinol (a SIRT inhibitor) exhibited any effect
- acetylated p53 level (acetylated P53; smooth muscle cells from CD38 (−/−) mice): increased acetylated p53
- protective effect of CD38 knock out upon high fat diet-induced obesity ([3]; CD38 (−/−) mice): abrogated
- weight gain compared with vehicle treated CD38 (−/−) mice ([3]; CD38 (−/−) mice): gained a statistically significant amount of weight
